Consider 1 cell line from the supplement of paper PMC10307832.

Experiment in all cases: relative viability (nuclei count vs DMSO), 5 days (fraction); higher = more cells survive
Compound in the experiment “Zosuquidar + Foretinib”: O[C@@H](COc1cccc2ncccc12)CN1CCN([C@@H]2c3ccccc3[C@@H]3[C@H](c4ccccc42)C3(F)F)CC1 [Zosuquidar] + COc1cc2c(Oc3ccc(NC(=O)C4(C(=O)Nc5ccc(F)cc5)CC4)cc3F)ccnc2cc1OCCCN1CCOCC1 [Foretinib] (partner 0.25 µM)
In a few lines:
(§1)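 Five library-drug doses in √10 steps were combined with a fixed anchor-drug dose, or a single drug was given alone, by pin tool to lung cancer cell lines in 1536-well plates the day after seeding. Nuclei were stained and counted after 5 days. Relative viability is the nuclei count in treated wells over that in vehicle wells, taken as the median of duplicate plates.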

Compound in the experiment “Zosuquidar + Alpelisib”: O[C@@H](COc1cccc2ncccc12)CN1CCN([C@@H]2c3ccccc3[C@@H]3[C@H](c4ccccc42)C3(F)F)CC1 [Zosuquidar] + Cc1nc(NC(=O)N2CCC[C@H]2C(N)=O)sc1-c1ccnc(C(C)(C)C(F)(F)F)c1 [Alpelisib] (partner 2 µM)
Summed up:
as §1

Compound in the experiment “Kobe2602 + Luminespib”: C1=CC(=CC=C1NC(=S)NNC2=C(C=C(C=C2[N+](=O)[O-])C(F)(F)F)[N+](=O)[O-])F [Kobe2602] + CCNC(=O)c1noc(-c2cc(C(C)C)c(O)cc2O)c1-c1ccc(CN2CCOCC2)cc1 [Luminespib] (partner 0.01 µM)
Summed up: as §1

Compound in the experiment “Cabozantinib + Lapatinib”: COc1cc2nccc(Oc3ccc(NC(=O)C4(C(=O)Nc5ccc(F)cc5)CC4)cc3)c2cc1OC [Cabozantinib] + CS(=O)(=O)CCNCc1ccc(-c2ccc3ncnc(Nc4ccc(OCc5cccc(F)c5)c(Cl)c4)c3c2)o1 [Lapatinib] (partner 2 µM)
In a few lines: as §1

Regarding UMC-11, the relative viability amounted to 1.07 in the experiment with Zosuquidar + Foretinib (first compound 0.01 µM); 1.01 with Zosuquidar + Foretinib (first compound 0.03162 µM); 1.19 in the experiment with Zosuquidar + Foretinib (first compound 0.1 µM); 1.12 in the experiment with Zosuquidar + Foretinib (first compound 0.3162 µM); 0.987 with Zosuquidar + Foretinib (first compound 1 µM); 0.877 in the experiment with Zosuquidar + Alpelisib (first compound 0.01 µM). The relative viability with Zosuquidar + Alpelisib (first compound 0.03162 µM) turned out to be 1.03; with Zosuquidar + Alpelisib (first compound 0.1 µM) it was 0.973; with Zosuquidar + Alpelisib (first compound 0.3162 µM), 1.02; with Zosuquidar + Alpelisib (first compound 1 µM), 0.961; with Kobe2602 + Luminespib (first compound 0.2 µM), 1.04; with Kobe2602 + Luminespib (first compound 0.6325 µM), 1.12. The relative viability in the experiment with Kobe2602 + Luminespib (first compound 2 µM) stood at 0.959; in the experiment with Kobe2602 + Luminespib (first compound 6.325 µM), 1.04; with Kobe2602 + Luminespib (first compound 20 µM), 1.05; in the experiment with Cabozantinib + Lapatinib (first compound 0.02 µM), 1.05; with Cabozantinib + Lapatinib (first compound 0.06325 µM), 1.41; with Cabozantinib + Lapatinib (first compound 0.2 µM), 0.86. Also, the relative viability with Cabozantinib + Lapatinib (first compound 0.6325 µM) was found to be 1.07; with Cabozantinib + Lapatinib (first compound 2 µM), 0.91.
